{
  "source": "patent US20250241918A1",
  "about": "“NOVEL USE OF PYRAZOLOPYRIMIDINE COMPOUND” (HEFEI YOUYUAN PHARMACEUTICAL CO., LTD., priority 2022, published 2025)",
  "key": {"[1]": {"test_system": "rat colitis model induced by rectal administration of DNBS", "experiment": "Rat colitis induced by enema administration of DNBS", "assay_type": "in vivo, Wister rats", "conditions": "20 mg/kg p.o. QD, day -2 to 6 (G6); DNBS colitis rats; comparable to positive control group", "method": "Sixty male Wister rats (purchased from Beijing Vital River Laboratory Animal Technology Co., Ltd.) were randomly divided into six groups, with 10 rats in each group: G1 was the blank control group; G2-G6 were the rat colitis model groups induced by rectal administration of DNBS solution (Tokyo Chemical Industry Co., Ltd., 50 mg/mL DNBS dissolved in 30% ethanol). Various animals were administered with drugs starting from two days before colitis induced by DNBS, and the administration schedules were shown in Table 3 below.\nThe induction of colitis was performed as follows. The rats were fasted for 40 h before administration, and were subcutaneously injected with 5% glucose saline ([…], once a day) during the fast. On day 0, the fasted rats were anesthetized using Zoletil (intraperitoneal injection, 25 mg/kg, purchased from a pharmacy) and xylazine (intraperitoneal injection, 5 mg/kg, purchased from Sigma-Aldrich). In G2-G6 model groups, colitis was induced in rats by inserting a catheter from the anus into the left colic flexure (about 8 cm away from the anus) and administrating DNBS (0.5 mL per rat) through enema administration. The G1 blank control group was administered with 30% ethanol via enema using the same method. In order to avoid the reflux of enema fluid, animals with enema administration were kept in a head-down position for 15 mins, and then maintained in the Trendelenburg position until waking up.\nDuring the administration period, the body weights of rats in all groups were recorded every day. Six days later, the animals were euthanized and the colorectal tissues were collected. The ulcer area of the colorectum, as well as the degrees of adhesion, intestinal obstruction, ulceration, and intestinal wall thickening, were measured. The pathological condition of the intestinal wall was evaluated. The conditions of colon damage was evaluated according to Table 4.\nIf the ulcer is irregular in shape, it can be considered as a rectangle, and then the length and width were measured to evaluate the ulcer area. Ulcer area (cm^2)=ulcer length (cm)×ulcer width (cm)."}, "[2]": {"test_system": "adjuvant-induced arthritis model rats", "experiment": "Adjuvant-induced rat arthritis model", "assay_type": "in vivo, Sprague-Dawley (SD) rats", "conditions": "Day 21", "method": "Experimental animals: Fifty male Sprague-Dawley (SD) rats weighing 180+20 g (provided by Qinglongshan Animal Breeding Center, license number SCXK(Su) 2017-0001) were fed with conventional pellet food (Jiangsu Xietong Biology Co., Ltd.) and housed in a clean animal facility. The rats were housed under a 12 h dark/12 h light cycle with free access to food and water. The temperature was maintained between 20° C. to 26° C., while the relative humidity ranged from 40% to 70%. […] Each group of 10 animals was administered QD for a continuous period of 21 days. […]\nPaw swelling measurement: 1) the volume of right hind paw for the rats in each group was measured and recorded using a plethysmometer for paw volume before administration, which was used as the baseline value before modeling; 2) the volume of the rats' paw was measured at the end of administration (Day 21), which was used as the secondary value; 3) the swelling volume of the rats' paw was calculated according to the following formula: […]\nThe arthritis index scores were determined as following: at the end of administration (Day 21), rats in each group were evaluated according to the scoring standard described in Table 5. […]"}},
  "data": [
    {"smiles": "CN(C)CC(=O)N1CCC[C@@H](n2nc(-c3ccc(Oc4ccccc4)cc3)c3c(N)ncnc32)C1", "note": "[Compound 22, (R)-1-(3-(4-amino-(4-phenoxyphenyl)-1H-pyrazolo[3,4-d]pyrimidin-1-yl)piperidin-1-yl)-2-(dimethylamino) ethanone]", "values": [
      {"measurement": "animal body weights vs G2 model group", "setting": "[1]", "value": "significantly lower than those for the G2 group"},
      {"measurement": "scores for the degrees of adhesion, intestinal obstruction, ulceration, intestinal wall thickening vs G2 model group", "setting": "[1]", "value": "significantly lower than those for the G2 group"},
      {"measurement": "ulcer areas of colorectal tissues vs G2 model group", "setting": "[1]", "value": "significantly lower than those for the G2 group"},
      {"measurement": "paw swelling", "setting": "[2]; 10 mg/kg orally QD", "value": "significantly alleviated paw swelling"},
      {"measurement": "paw swelling", "setting": "[2]; 30 mg/kg orally QD", "value": "significantly alleviated paw swelling"}
    ]}
  ]
}
